From PubChem BioAssay AID1963965 (Molecular Pharmacology Branch, DTP, NCI, 2024)

System: 996289-038-R-J1-PDC spheroid viability
Assay: Anticancer human tumor 996289-038-R-J1-PDC patient-derived colon adenocarcinoma cell line growth inhibition [PI3K]
Conditions: spheroids with HUVEC and MSC; for IC50: curve of first compound; for viability, T/C: stronger effect = lower value; active means viability on the fitted dose curve at most 10% of control; inactive means the rest
Outline: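 Viability of mixed-cell spheroids was determined after exposure to pairwise combinations, one partner being inavolisib, alpelisib, duvelisib or copanlisib. Highest tested concentration matched clinical Cmax where known and 10 microM where not, descending in half-log steps.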

[1] = second compound 0.0316 µM, first compound 0.0316 µM
[2] = second compound 0.0316 µM, first compound 0.1 µM
[3] = second compound 0.1 µM, first compound 0.0316 µM
[4] = second compound 0.1 µM, first compound 0.1 µM
[5] = second compound 0.316 µM, first compound 0.0316 µM
[6] = second compound 0.316 µM, first compound 0.1 µM
[7] = second compound 1 µM, first compound 0.0316 µM
[8] = second compound 1 µM, first compound 0.1 µM
[9] = second compound 3.16 µM, first compound 0.0316 µM
[10] = second compound 3.16 µM, first compound 0.1 µM
[11] = second compound 10 µM, first compound 0.0316 µM
[12] = second compound 10 µM, first compound 0.1 µM
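Further: spheroids exposed to compounds for seven days before viability read.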
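Wherever viability, T/C is given: luminescence used as a proxy for viable cell amount; percent viability relative to DMSO vehicle control as 100%.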

CC(=O)c1c(C)c2cnc(Nc3ccc(N4CCNCC4)cn3)nc2n(C2CCCC2)c1=O + CC(Nc1ncnc2nc[nH]c12)c1cc2cccc(Cl)c2c(=O)n1-c1ccccc1
inactive: viability, T/C (second compound 0.0316 µM, first compound 0.000316 µM) 104% | viability, T/C (second compound 0.0316 µM, first compound 0.001 µM) 96.3% | viability, T/C (second compound 0.0316 µM, first compound 0.00316 µM) 93.2% | viability, T/C (second compound 0.0316 µM, first compound 0.01 µM) 92% | viability, T/C [1] 99.2% | viability, T/C [2] 84.2% | viability, T/C (second compound 0.1 µM, first compound 0.000316 µM) 96.4% | viability, T/C (second compound 0.1 µM, first compound 0.001 µM) 97.5% | viability, T/C (second compound 0.1 µM, first compound 0.00316 µM) 101% | viability, T/C (second compound 0.1 µM, first compound 0.01 µM) 102% | viability, T/C [3] 107% | viability, T/C [4] 90.1% | viability, T/C (second compound 0.316 µM, first compound 0.000316 µM) 93.8% | viability, T/C (second compound 0.316 µM, first compound 0.001 µM) 105% | viability, T/C (second compound 0.316 µM, first compound 0.00316 µM) 102% | viability, T/C (second compound 0.316 µM, first compound 0.01 µM) 97.7% | viability, T/C [5] 108% | viability, T/C [6] 86.7% | viability, T/C (second compound 1 µM, first compound 0.000316 µM) 106% | viability, T/C (second compound 1 µM, first compound 0.001 µM) 102% | viability, T/C (second compound 1 µM, first compound 0.00316 µM) 90.3% | viability, T/C (second compound 1 µM, first compound 0.01 µM) 95.2% | viability, T/C [7] 92.4% | viability, T/C [8] 89.8% | viability, T/C (second compound 3.16 µM, first compound 0.000316 µM) 102% | viability, T/C (second compound 3.16 µM, first compound 0.001 µM) 91.3% | viability, T/C (second compound 3.16 µM, first compound 0.00316 µM) 88.4% | viability, T/C (second compound 3.16 µM, first compound 0.01 µM) 95.9% | viability, T/C [9] 103% | viability, T/C [10] 84.5% | viability, T/C (second compound 10 µM, first compound 0.000316 µM) 87.5% | viability, T/C (second compound 10 µM, first compound 0.001 µM) 84.4% | viability, T/C (second compound 10 µM, first compound 0.00316 µM) 88.2% | viability, T/C (second compound 10 µM, first compound 0.01 µM) 86.7% | viability, T/C [11] 104% | viability, T/C [12] 72.7%
> 0.1 µM: IC50 (second compound 0.0316 µM) | IC50 (second compound 0.1 µM) | IC50 (second compound 0.316 µM) | IC50 (second compound 1 µM) | IC50 (second compound 3.16 µM) | IC50 (second compound 10 µM)

CNC(=O)c1ccc(N2C(=S)N(c3ccc(C#N)c(C(F)(F)F)c3)C(=O)C2(C)C)cc1F + CC(Nc1ncnc2nc[nH]c12)c1cc2cccc(Cl)c2c(=O)n1-c1ccccc1
inactive: viability, T/C [1] 96.5% | viability, T/C [2] 104% | viability, T/C (second compound 0.0316 µM, first compound 0.316 µM) 110% | viability, T/C (second compound 0.0316 µM, first compound 1 µM) 110% | viability, T/C (second compound 0.0316 µM, first compound 3.16 µM) 118% | viability, T/C (second compound 0.0316 µM, first compound 10 µM) 119% | viability, T/C [3] 130% | viability, T/C [4] 98.4% | viability, T/C (second compound 0.1 µM, first compound 0.316 µM) 93.6% | viability, T/C (second compound 0.1 µM, first compound 1 µM) 88.6% | viability, T/C (second compound 0.1 µM, first compound 3.16 µM) 105% | viability, T/C (second compound 0.1 µM, first compound 10 µM) 108% | viability, T/C [5] 107% | viability, T/C [6] 106% | viability, T/C (second compound 0.316 µM, first compound 0.316 µM) 102% | viability, T/C (second compound 0.316 µM, first compound 1 µM) 110% | viability, T/C (second compound 0.316 µM, first compound 3.16 µM) 119% | viability, T/C (second compound 0.316 µM, first compound 10 µM) 103% | viability, T/C [7] 94.7% | viability, T/C [8] 112% | viability, T/C (second compound 1 µM, first compound 0.316 µM) 98.2% | viability, T/C (second compound 1 µM, first compound 1 µM) 102% | viability, T/C (second compound 1 µM, first compound 3.16 µM) 114% | viability, T/C (second compound 1 µM, first compound 10 µM) 96.9% | viability, T/C [9] 96.9% | viability, T/C [10] 102% | viability, T/C (second compound 3.16 µM, first compound 0.316 µM) 89.6% | viability, T/C (second compound 3.16 µM, first compound 1 µM) 109% | viability, T/C (second compound 3.16 µM, first compound 3.16 µM) 102% | viability, T/C (second compound 3.16 µM, first compound 10 µM) 110% | viability, T/C [11] 98.9% | viability, T/C [12] 101% | viability, T/C (second compound 10 µM, first compound 0.316 µM) 83.1% | viability, T/C (second compound 10 µM, first compound 1 µM) 104% | viability, T/C (second compound 10 µM, first compound 3.16 µM) 98.8% | viability, T/C (second compound 10 µM, first compound 10 µM) 97.2%
> 10 µM: IC50 (second compound 0.0316 µM) | IC50 (second compound 0.1 µM) | IC50 (second compound 0.316 µM) | IC50 (second compound 1 µM) | IC50 (second compound 3.16 µM) | IC50 (second compound 10 µM)
